Patent publication US10272110B2, “Methods for promoting HSC engraftment” (CHILDREN'S MEDICAL CENTER CORPORATION, priority 2006, dated 2019)
Entries after “also recorded” stand apart in the source; their conditions may differ.

Legend:
[1] = test system: embryonic hematopoiesis; experiment: RA / DEAB treatment of wild-type and kgg zebrafish embryos; format: in vivo
[2] = test system: ES cell-derived embryoid bodies; experiment: Hematopoietic colonies from ES cell-derived embryoid bodies treated with DEAB or RA; format: cell-based, mouse; details: added to EBs between days two to three
Text: DEAB and RA also affected the formation of mouse hematopoietic progenitors arising from ES cell-derived embryoid bodies (EBs). […] See also Davidson et al., 425 Nature 300-06 (2003); Davidson & Zon, 292(2) Devel. Biol. 506-18 (2006).

[3] = test system: runx1/cmyb+ AGM HSCs; details: for effect on AGM HSCs in zebrafish embryos (in words): exposure from three somites to 36 hpf, runx1/cmyb staining
Description: A chemical genetic screen was conducted to identify novel pathways that modulate definitive HSC formation during zebrafish embryogenesis. FIG. 1. Genes such as runx1 and cmyb, required for HSC development during mammalian hematopoiesis, are expressed in the ventral wall of the dorsal aorta in a region analogous to the mammalian AGM at thirty-six hours post-fertilization (hpf). […] Wild-type embryos were incubated with individual compounds from the three-somite stage until thirty-six hpf. Probes for runx1 and cmyb were combined and utilized to detect HSCs by in situ hybridization.
Wild-type age-matched embryos were arrayed into 48-well plates (˜5 embryos/well) of individual test compounds and exposed from 3-somites until 36 hpf. […] In situ hybridization for runx1 and cmyb was performed to assess HSCs. Compounds were retested at 10 μM, 20 μM, and 50 μM. Stem cell specificity was assessed using flk1 at 36 hpf. PGE2, PGI2, dmPGE2 and all cox inhibitors (Sigma) were used at 10 μM to 20 μM.
Qualitative scoring (# embryos with altered HSCs/# scored) of runx1/cmyb was conducted using the following criteria: Normal/unchanged=continuous line of runx1/cmyb+ endothelial cells and occasional hematopoietic clusters. Decreased/absent=reduction in runx1/cmyb+ cells, including the presence of large gaps in the line of HSCs, isolated positive cells, or absence of expression. Increased/excess=enhancement in runx1/cmyb^+ cells, including many HSC clusters, a thickened line of HSCs, or ectopic expression.

[4] = test system: wnt activity; experiment: wnt reporter TOP:dGFP zebrafish embryos; format: in vivo; details: vs control
Text: Clinical experience in patients with APC mutations has shown that inhibition of prostaglandin synthesis results in decreased wnt mediated polyp formation. […] These interactions were examined in vivo using a wnt reporter zebrafish transgenic line, TOP:dGFP. At fifty-percent epiboly, embryos were subjected either to nothing (control), indomethacin, or PGE2, and the amount of wnt signaling activated in the embryo assessed by GFP induction driven from the wnt binding site. Analysis of alterations in GFP expression in the head was analyzed by in situ hybridization. […] FIG. 12.

[5] = test system: wnt activity; experiment: wnt activity in the AGM of TOP:gal mice; details: mouse, in vivo
[6] = test system: vasculature (flk1); details: zebrafish, in vivo, 10 μM
Description: Wild-type age-matched embryos were arrayed into 48-well plates (˜5 embryos/well) of individual test compounds and exposed from 3-somites until 36 hpf. Three compound libraries were utilized: NINDS Custom Collection (1040), SpecPlus Collection (960) and BIOMOL ICCB Known Bioactives (480). […] In situ hybridization for runx1 and cmyb was performed to assess HSCs. Compounds were retested at 10 μM, 20 μM, and 50 μM. Stem cell specificity was assessed using flk1 at 36 hpf. PGE2, PGI2, dmPGE2 and all cox inhibitors (Sigma) were used at 10 μM to 20 μM.

[7] = test system: cmyb/lmo2+ HSCs; experiment: Confocal quantification of HSCs in cmyb:GFP x lmo2:dsRed bigenic embryos; format: in vivo, zebrafish; details: 36 hpf live embryos
Description: A long-acting derivative, 16,16-dimethyl-PGE2 (dmPGE2, 10 μM) caused an increase in runx1/cmyb+ AGM HSCs in 78% of embryos examined (97/124). AGM HSCs were inhibited by indomethacin (10 μM) treatment in 90% of embryos analyzed (92/102). […] Transgenic cmyb:GFP zebrafish with green fluorescent HSCs and myeloid progenitor cells were crossed to lmo2:dsRed fish that have red fluorescent endothelial cells and HSCs to visualize the effects of chemical exposure in vivo. […] FIG. 3.
Live 36 hpf treated bigenic zebrafish embryos were embedded in 1% low-melting point agarose containing 0.4 mg/ml Tricaine-S for confocal imaging. cmyb-GFP transgenic reporter lines were created from a BAC containing the cmyb promoter genomic sequence (Galloway, Zhu, Lin, Zon, unpublished); lmo2:DsRed fish were created as described^27. For HSC quantification, cmyb/lmo2+ positive cells were counted in projections of z-stack images (n=10/treatment).

[8] = test system: runx1, cmyb expression; experiment: qPCR of HSC gene expression in treated zebrafish embryos; format: in vivo
[9] = test system: PGE2 formation; experiment: HPLC-tandem mass spectrometry of PGE2 in zebrafish embryos; format: in vivo; details: 36 hpf embryos, n=3; untreated 18+/−6
Description: PGE2 and the stable PGI2 metabolite, 6-keto-PGF1α, were measured using HPLC-tandem mass spectrometry. Ethylacetate extracts from homogenized embryos were spiked with the corresponding stable isotope labeled internal standards (d4-PGE2 and d4-6-keto PGF1α) and allowed to react with methoxylamine. The following mass transitions were monitored: m/z 384→272 (PGE), m/z 398→368 (6-keto PGF1α and TxB2).

[10] = test system: mouse ES cells; experiment: ES cell hematopoietic differentiation assays (M3434 methylcellulose and OP9 colony assays); format: cell-based; details: indomethacin 20 μM (OP9) and 100 μM (GM)
Description: ES cell hematopoietic differentiation assays were performed as previously described. […] M3434 methylcellulose colony forming and OP9 colony assays were conducted on day 6 and analyzed at […], respectively. Colony type was identified by morphological analysis; duplicate chemical exposures were averaged to determine the reported colony number (n=3 replicates minimum).

[11] = test system: CFU-S from murine bone marrow cells; experiment: Murine colony-forming units-spleen (CFU-S); format: in vivo, mouse
Description: Two independent BM samples were treated (n=5/treatment×2 replicates) for each variable. Recipient mice were lethally irradiated with a split dose of 10 Gy. 6×10^4 unfractionated dmPGE2 or control-treated BM cells were injected retro-orbitally into irradiated recipient mice. Spleens were dissected on day eight or twelve, weighed and fixed with Bouin's solution; hematopoietic colonies per spleen were counted. 1×10^5 cells/recipient were transplanted after treatment with the cox inhibitors. FACS sorted ckit^+sca1^+lineage^− BM cells were treated as above and transplanted at a dose of either 100 cells/recipient or 300 cells/recipient.

[12] = test system: runx1/cmyb+ AGM HSCs; experiment: Heat shock wnt-pathway transgenic embryos treated with PG drugs: AGM HSC formation; format: in vivo, zebrafish; details: hs:wnt8 embryos heat shocked at five somites
Description: More specifically, Wnt signaling through its main transcriptional mediator β-catenin plays an important role in controlling tissue patterning, cell fate decisions, and proliferation in many embryonic contexts, including the development and differentiation of organs. […] Whether wnt signaling has a role during HSC formation in zebrafish was determined using heat shock inducible activators and repressors of the wnt pathway. Briefly, wnt-inducible embryos were harvested and heat shocked for twenty minutes at 38° C. Genotypes were sorted by GFP expression, and the AGM HSCs analyzed by runx1/cmyb expression in situ. […] This is the first evidence in any organism that wnt signaling is required for AGM HSC formation.
Additionally, indomethacin and dmPGE2 was used to investigate the interaction of the wnt and prostaglandin pathways during HSC development and in marrow recovery following injury. FIG. 13 reflects the potential points of interaction of the PG and wnt pathways. […] Furthermore, dmPGE2 can rescue the inhibitory effects of dkk activation on AGM HSC formation at 36 hpf, as shown by in situ hybridization for runx1/cmyb.

[13] = test system: wnt activity; experiment: wnt activity in kidney marrow of irradiated Top:dGFP adults; format: in vivo, zebrafish; details: day three post irradiation
Description: (§1) To determine if prostaglandin pathway manipulation can alter wnt activity in the kidney marrow repopulation in the adult, the effects of dmPGE2 and indomethacan was examined further in Top:dGFP lines. […] FIG. 14. To discern whether modulation of prostaglandin signaling can modify the wnt mediated effects on kidney marrow recovery following irradiation, wnt genes were activated by heat shock at 38° C. at two days post irradiation and then. exposure to prostaglandin pathway drugs at one day post heat shock. The hs:wnt8-GFP fish were exposed to indomethacin, while the dkk1, axin, and dnTCF transgenic fish were exposed to dmPGE2. Whole kidney marrow was analyzed by FACS on day ten post-irradiation.

[14] = test system: kidney marrow precursor cell population; experiment: Kidney marrow recovery after irradiation in heat shock wnt transgenic adults treated with PG drugs; format: in vivo, zebrafish; details: hs:wnt8-GFP adults, day ten post-irradiation
Description: An irradiation recovery assay was also employed to investigate the role of wnt signaling in hematopoietic homeostasis in zebrafish. Transgenic fish expressing wnt-related genes were sublethally irradiated and heat shock gene induction was initiated by overnight incubation at 38° C. on day two post-irradiation. Kidney marrow was harvested at various timepoints post-irradiation as outlined previously for the prostaglandin experiments. FIG. 11. […] Inhibition of wnt signaling, by heat shock dkk or dnTCF, drastically alters the kinetics of marrow recovery and can result in the complete failure of marrow regeneration and lethality.
as §1

Structure (SMILES): CCN(CC)c1ccc(C=O)cc1 [DEAB]
- erythroid cells in wild-type embryos [1]: induced an expansion of erythroid cells
- expression of hoxa9a in kgg embryos [1]: failed to rescue
- hematopoiesis in kgg mutants [1]: restored hematopoiesis
- increase in 'primitive' erythroid colonies (CFU-Ep) [2]: five-eight fold

Structure (SMILES): CCCCC[C@H](O)/C=C/[C@H]1[C@H](O)CC(=O)[C@@H]1C/C=C\CCCC(=O)O [PGE2, prostaglandin E2]
- increased runx1/cmyb expression (# embryos altered/# scored) ([3]; 20 μM, 36 hpf): 25/49
- effect on AGM HSCs in zebrafish embryos (in words) [3]: stronger expression of runx1/cmyb than PGI2; also recorded: increase moderately
- wnt activity (GFP expression) in TOP:dGFP embryos [4]: markedly enhanced wnt activity
- wnt activity in the AGM of TOP:gal mice [5]: induced wnt activity

Structure (SMILES): COc1ccc2c(c1)c(CC(=O)O)c(C)n2C(=O)c1ccc(Cl)cc1 [Indomethacin]
- embryos with AGM HSCs inhibited ([3]; 10 μM): 90%
- decreased runx1/cmyb+ HSCs (# embryos altered/# scored) ([3]; 10 μM, 36 hpf): 92/102
- effect on AGM HSCs in zebrafish embryos (in words) [3]: reduced stem cells in the aorta
- embryos with slightly altered intersomitic vessels [6]: 30%
- embryos with slightly altered intersomitic vessels (# altered/# examined) [6]: 15/49
- HSC numbers along the floor of the aorta by confocal microscopy (in words) [7]: significantly decreased numbers of HSCs
- cmyb expression by qPCR (in words) ([8]; 10 μM): significant alterations
- runx1 expression by qPCR, reduction ([8]; indomethacin 10 μM): 50%
- PGE2 formation after treatment [9]: < 2 pg/50 embryos
- colony growth [10]: inhibited colony growth
- number of CFU-S12, decrease ([11]; WBM ex vivo 1 μM/10^6 cells, 1×10^5 cells transplanted): 70%
- CFU-S12 Colony Number ([11]; Whole Marrow, 100000 cells transplanted, 1 μM/10^6 cells ex vivo, EtOH 8.8 (2.1)): 2.5 (1.4)
- wnt activity (GFP expression) in TOP:dGFP embryos ([4]; listed as indo): virtual absence of wnt activity
- wnt activity (GFP expression) in TOP:dGFP embryos ([4]; listed as indomethacin): severely reduced GFP expression
- effect on wnt8-mediated enhancement of runx1/cmyb expression / HSC induction ([12]; listed as indo): reversed
- effect on wnt8-mediated enhancement of runx1/cmyb expression / HSC induction ([12]; listed as indomethacin): can be blocked
- wnt activity (GFP) in kidney marrow of Top:dGFP adults [13]: inhibited GFP expression
- effect on wnt-mediated enhancement of the kidney marrow precursor cell population ([14]; listed as Indo): blocked
- effect on wnt-mediated enhancement of the kidney marrow precursor cell population ([14]; listed as indomethacin): severely diminish
